From patent US6368788B1 (priority 1987, dated 2002)
Values joined by “and” are separate entries in the source; they are usually repeats but may differ in a detail not shown here. Equal values may be shown once. “Also recorded” adds a separate entry of the source. Read-outs that look alike come from different tables or passages of the source.

Assays:
[1] = Patients after radiation and chemotherapy, L-Glu-L-Trp 100 μg daily 10 days; details: human, in vivo
Protocol: A total of 246 patients were eventually entered into studies after receiving radiation and chemotherapy. L-Glu-L-Trp was administered to the patients in single 100 μg daily dose for each of 10 days during the period of chemotherapy. A control group constituted 158 similar patients (following radiation and chemotherapy), and these patients were treated in a conventional manner (i.e., chemotherapy and support therapy). […] Immune parameters were periodically monitored over the next 4-6 months in the patients and decreased levels of lymphocytes or their subpopulations were used as clinical triggers for additional therapeutic intervention with L-Glu-L-Trp.

Frostbite = test: Frostbite; design: species or system human; details: in vivo
Protocol: Seventeen patients with frostbite of the extremities were treated with L-Glu-L-Trp either im or intranasally. Eleven patients constituted a control group.

Mycobacterium leprae = assay type: in vivo, human
[2] = Frequently ill children with respiratory infection, asthma and allergy (Protocol C); assay type: in vivo, human
E-RFC = test: In vitro sheep red blood cell rosette forming response of gastritis patients' T-lymphocytes; assay type: cell-based, human; details: 22 patients
Excerpt: Twenty two patients (all men aged 18-30 years) suffering from chronic primary gastritis and gastro-duodenitis were entered into the trial. Diagnosis was based on physical examination, and clinical and laboratory investigations including roentgenoscopy and endoscopic examination of the stomach and duodenum. Patient entry criteria was further conditioned on the results of laboratory tests for i) pre-treatment immune indices (i.e., numbers of lymphocytes, T-, and B-lymphocytes, etc.; TABLE 46) and ii) the in vitro sheep red blood cell rosette forming response of T-lymphocytes to L-Glu-L-Trp, (i.e., whether in vitro incubation of patient peripheral blood lymphocytes with L-Glu-L-Trp increased the percentage of E-RFC). […] These twelve patients were entered into the trial.

[3] = test system: antibody-producing cells in spleen; test: Antibody plaque forming cell response to sheep red blood cells (Jerne); assay type: in vivo, (CBAxC57B1/6) F1 mice; details: for PFC/10^6 splenocytes / PFC/Spleen / Spleen weight/Body weight / Splenocytes per Spleen: s-rbc immunized mice, day 5
[4] = test system: peripheral blood leukocytes; test: Peripheral blood leukocytes in cortisone suppressed rats; assay type: in vivo; details: for Basophils (% of Normal Control Value) / Basophils: % / Basophils: Total Cells / Eosinophils (% of Normal Control Value) / Eosinophils: % / Eosinophils: Total Cells / Leukocytes (% of Normal Control Value) / Leukocytes: Total Cells / Lymphocytes (% of Normal Control Value) / Lymphocytes: % / Lymphocytes: Total Cells / Monocytes (% of Normal Control Value) / Monocytes: % / Monocytes: Total Cells / Segmented Neutrophils (% of Normal Control Value) / Segmented Neutrophils: % / Segmented Neutrophils: Total Cells / Stab Neutrophils (% of Normal Control Value) / Stab Neutrophils: % / Stab Neutrophils: Total Cells: cortisone suppressed rats, 10 μg/kg im
Protocol: An immunocompromised state was established over a period of 80 days in experimental rats by administration of cortisone acetate at a dosage of 25 mg/kg twice weekly with tetracycline hydrocholoride po in drinking water. In the experimental group, L-Glu-L-Trp was administered in three treatment courses, each course consisting of 10 daily im injections of 10 μg/kg or 100 μg/kg, and each course of treatment separated from the next course by a 1 month interval. In the control group, saline was administered in the same three treatment course schedule. Differential blood counts were conducted on day 0 (Normal Control), day 59, and day 79 of the study. […] Results obtained with the 10 μg/kg treatment dose (presented in TABLE 73) were not markedly different than those obtained with the 100 μg/kg dose.

M. bovis = assay type: in vivo, mice; details: mouse, in vivo
[5] = DTH sensitivity to tuberculin; assay type: in vivo, guinea pigs
Protocol: In the second study, affects of L-Glu-L-Trp on DTH sensitivity were investigated in guinea pigs sensitized to tuberculin. L-Glu-L-Trp was administered ip at 10 μg/kg or 1000 μg/kg on the day of an intradermal sensitization with tuberculin antigen.

[6] = 10 μg/kg ip on day of tuberculin sensitization
[7] = 1000 μg/kg ip on day of tuberculin sensitization

L-Glu-L-Trp
Clinical outcome [1]: decreased incidence and severity of post-operative complications
Clinical outcome (Frostbite): Rapid healing and restoration of tissue integrity
Mean % responsive PBL (blast cells), Con-A (Mycobacterium leprae; 5-7 days): 22.5 ± 4.0%
Mean % responsive PBL (blast cells), PHA (Mycobacterium leprae; 5-7 days): 28.7 ± 3.8%
Additional decrease in area of ulceration, primary NTU (Mycobacterium leprae; in vivo): 23.2% and 22%
Blast cells responsive to synthetic leprosy antigen (Mycobacterium leprae; in vivo): 2.86±0.9%
Clinical outcome (Mycobacterium leprae; in vivo): resolution of dermal leprotic lesions
Decrease in area of ulceration, primary NTU (Mycobacterium leprae; in vivo): 40%
Decrease in area of ulceration, recurrent ulcers (Mycobacterium leprae; in vivo): 22.6%
EI change versus Before (↓) (Mycobacterium leprae; in vivo): (↓33%)
Healing time, primary NTU (Mycobacterium leprae; in vivo): 3-6 weeks
Healing time, secondary recurrent NTU (Mycobacterium leprae; in vivo): 4-6 weeks
Increase of blast responsiveness of patient lymphocytes to Con-A (Mycobacterium leprae; in vivo): 1.6 fold
Increase of blast responsiveness of patient lymphocytes to PHA (Mycobacterium leprae; in vivo): 1.8 fold
Increase of lymphocytes responsive to synthetic leprosy antigen (Mycobacterium leprae; in vivo): about 1.6 fold
Lepromin skin test conversion (Mycobacterium leprae; in vivo): four subjects with negative skin tests for lepromin at the beginning of therapy turned positive
Mean % responsive PBL (blast cells), Con-A (Mycobacterium leprae; in vivo): 36.9 ± 1.28%
Mean % responsive PBL (blast cells), PHA (Mycobacterium leprae; in vivo): 22.3 ± 1.43%
OKT 4 (%) (Mycobacterium leprae; in vivo): 40.67 ± 1.44% and 43.25 ± 1.91%
OKT 4/OKT 8 (Mycobacterium leprae; in vivo): 1.61 ± 0.08 and 1.68 ± 0.32
OKT 8 (%) (Mycobacterium leprae; in vivo): 25.56 ± 1.15% and 27.25 ± 3.42%
OKT 11 (%) (Mycobacterium leprae; in vivo): 72.22 ± 1.52% and 76.25 ± 0.87%
Rate of healing, primary NTU (Mycobacterium leprae; in vivo): 6.34 mm^2/day
Rate of healing, recurrent NTU (Mycobacterium leprae; in vivo): 5.91 mm^2/day
Romanovsky Staining (Mycobacterium leprae; in vivo): regenerative: lst or 2nd phase; also recorded: regenerative: 2nd or 3rd. phase,; also recorded: regenerative: 3rd. phase/healing;; also recorded: degenerative cells &
Children with a decrease in the number of respiratory infections ([2]; 6-12 months): 92.9%
T-lymphocytes in peripheral blood ([2]; after first course): statistically significant increase was noted in both the absolute number and percentage of T-lymphocytes
Reduction in attacks of bronchial asthma ([2]; asthma patients): 4.2 fold
Average reduction in the number of infections ([2]; in vivo): 3.6 fold
Decrease of average length of illness ([2]; in vivo): 4 to 5 days
Patients in whom food allergies disappeared ([2]; in vivo): 67.8%
Patients with a positive in vitro response (increased E-RFC) (E-RFC): 55%
Increase of frequency of PFC per 10^6 splenocytes ([3]; 1 μg/kg): 2.8 fold
Increase of number of PFC in spleen over saline control ([3]; 1 μg/kg): 2.7 fold
PFCs per spleen vs saline control ([3]; 10 μg/kg): 1.8 fold
PFCs per spleen vs saline control ([3]; 100 μg/kg): 1.6 fold
PFC/10^6 splenocytes ([3]; 1 μg/kg): 69.2 ± 11.3
PFC/Spleen ([3]; 1 μg/kg): 11722 ± 2005
Spleen weight/Body weight ([3]; 1 μg/kg): 0.42 ± 0.01
Splenocytes per Spleen ([3]; 1 μg/kg): 168.6 ± 3.6 ×10^6
PFC/10^6 splenocytes ([3]; 10 μg/kg): 48.8 ± 9
PFC/Spleen ([3]; 10 μg/kg): 7854 ± 1631
Spleen weight/Body weight ([3]; 10 μg/kg): 0.43 ± 0.01
Splenocytes per Spleen ([3]; 10 μg/kg): 159 ± 8.5 ×10^6
PFC/10^6 splenocytes ([3]; 100 μg/kg): 41.7 ± 6
PFC/Spleen ([3]; 100 μg/kg): 6731 ± 1027
Spleen weight/Body weight ([3]; 100 μg/kg): 0.44 ± 0.02
Splenocytes per Spleen ([3]; 100 μg/kg): 162.6 ± 6 ×10^6
Peripheral blood cells vs saline treated controls ([4]; 10 μg/kg and 100 μg/kg): increased the number of leukocytes, monocytes, and lymphocytes in the peripheral blood of cortisone-suppressed rats
Basophils (% of Normal Control Value) ([4]; Day 59): (71%)
Basophils: % ([4]; Day 59): 0.4 ± 0.2%
Basophils: Total Cells ([4]; Day 59): 0.05 ± 0.03 × 10^3/mg
Eosinophils (% of Normal Control Value) ([4]; Day 59): (150%)
Eosinophils: % ([4]; Day 59): 4.3 ± 0.4 %
Eosinophils: Total Cells ([4]; Day 59): 0.6 ± 0.1 × 10^9/L
Leukocytes (% of Normal Control Value) ([4]; Day 59): (75%)
Leukocytes: Total Cells ([4]; Day 59): 12.4 ± 1.8 × 10^9/L
Lymphocytes (% of Normal Control Value) ([4]; Day 59): (11%)
Lymphocytes: % ([4]; Day 59): 57 ± 1.5 %
Lymphocytes: Total Cells ([4]; Day 59): 7 ± 1 × 10^9/L
Monocytes (% of Normal Control Value) ([4]; Day 59): (128%)
Monocytes: % ([4]; Day 59): 7 ± 0.9 %
Monocytes: Total Cells ([4]; Day 59): 0.92 ± 0.2 × 10^9/L
Segmented Neutrophils (% of Normal Control Value) ([4]; Day 59): (73%)
Segmented Neutrophils: % ([4]; Day 59): 26.7 ± 1 %
Segmented Neutrophils: Total Cells ([4]; Day 59): 3.3 ± 0.4 × 10^9/L
Stab Neutrophils (% of Normal Control Value) ([4]; Day 59): (100%)
Stab Neutrophils: % ([4]; Day 59): 4.7 ± 0.6%
Stab Neutrophils: Total Cells ([4]; Day 59): 0.6 ± 0.1 × 10^9/L
Basophils (% of Normal Control Value) ([4]; Day 79): (29%)
Basophils: % ([4]; Day 79): 0.3 ± 0.2%
Basophils: Total Cells ([4]; Day 79): 0.02 ± 0.02 × 10^3/mg
Eosinophils (% of Normal Control Value) ([4]; Day 79): (75%)
Eosinophils: % ([4]; Day 79): 4 ± 0.9%
Eosinophils: Total Cells ([4]; Day 79): 0.3 ± 0.1 × 10^9/L
Leukocytes (% of Normal Control Value) ([4]; Day 79): (49%)
Leukocytes: Total Cells ([4]; Day 79): 8.06 ± 0.9 × 10^9/L
Lymphocytes (% of Normal Control Value) ([4]; Day 79): (7.7%)
Lymphocytes: % ([4]; Day 79): 59 ± 2 %
Lymphocytes: Total Cells ([4]; Day 79): 4.7 ± 1 × 10^9/L
Monocytes (% of Normal Control Value) ([4]; Day 79): (100%)
Monocytes: % ([4]; Day 79): 8 ± 0.8 %
Monocytes: Total Cells ([4]; Day 79): 0.7 ± 0.1 × 10^9/L
Segmented Neutrophils (% of Normal Control Value) ([4]; Day 79): (44%)
Segmented Neutrophils: % ([4]; Day 79): 24.6 ± 1.3 %
Segmented Neutrophils: Total Cells ([4]; Day 79): 2 ± 2 × 10^9/L
Stab Neutrophils (% of Normal Control Value) ([4]; Day 79): (58%)
Stab Neutrophils: % ([4]; Day 79): 4.4 ± 0.7 %
Stab Neutrophils: Total Cells ([4]; Day 79): 0.35 ± 0.1 × 10^9/L
Survival (M. bovis): significantly increased survival
Survival Mean (M. bovis; ip): 39 ± 2 and 36 ± 3 and 30 ± 2 and 33 ± 1 and 31 ± 1 and 28 ± 1
Survival Median (M. bovis; ip): 46 ± 10 and 28 ± 3 and 26 ± 1 and 34 ± 3 and 28 ± 1 and 25 ± 1
Mean Skin Test Diameter ± S.D. Day 10 [5, 6]: 14.4 ± 1.3 mm
Mean Skin Test Diameter ± S.D. Day 20 [5, 6]: 15.1 ± 1.4 mm
Mean Skin Test Diameter ± S.D. Day 10 [5, 7]: 15.2 ± 1.3 mm
Mean Skin Test Diameter ± S.D. Day 20 [5, 7]: 13.9 ± 1.1 mm
DTH response to tuberculin antigen ([5]; day 10 or day 20): statistically significant increase in the DTH response
